“Also recorded” adds a separate entry of the source.

Common to all, as to type: cell-based, rat
The subject of assay [1] is DRG neurons. In words: Axon growth of DRG neurons transfected with G3BP1 constructs or siRNA. The note with it: siRNA-mediated knockdown, 100 nM siRNA vs. control siRNA; FIG. 15C. As to the method: For primary neuronal cultures, L4-5 DRG were harvested in Hybernate-A medium (BrainBits) and then dissociated as known to those of skill in the art. After centrifugation and washing in DMEM/F12 (Life Technologies), cells were resuspended in DMEM/F12, 1×N1 supplement (Sigma), 10% fetal bovine serum (Hyclone), and 10 μM cytosine arabinoside (Sigma). Dissociated DRGs were plated immediately on laminin/poly-L-lysine-coated coverslips or transfected (see below) and then plated on coated coverslips.
For DRG neuron transfection, dissociated ganglia were pelleted by centrifugation at 100×g for 5 min and resuspended in ‘nucleofector solution’ (Rat Neuron Nucleofector kit; Lonza). 5-7 μg plasmid was electroporated using an AMAXA Nucleofector apparatus (program SCN-8; Lonza). For siRNA transfection, 100 nM siRNAs (Dharmacon) were used with DharmaFECT 3 reagent and incubated for 36 h. G3BP1 siRNA sequence: 5′ […] 3′. Non-targeting siRNAs (siCon) were as control. RTddPCR was used to test the efficiency of depletion (see below). HEK293T cells were transfected using Lipofectamine® 2000 per manufacturer's instructions (Invitrogen). AAV5 preparations were titrated in DRG cultures by incubating with […] particles of AAV5 overnight.
For neurite outgrowth, images from 60 h DRG cultures were analyzed for neurite outgrowth using WIS-Neuromath. […]

The subject of assay [2] is DRG neurons. In words: Axon growth of dissociated DRG neuron cultures treated with Tat-fused G3BP1 peptides. As to the method: For primary neuronal cultures, L4-5 DRG were harvested in Hybernate-A medium (BrainBits) and then dissociated as known to those of skill in the art. After centrifugation and washing in DMEM/F12 (Life Technologies), cells were resuspended in DMEM/F12, 1×N1 supplement (Sigma), 10% fetal bovine serum (Hyclone), and 10 μM cytosine arabinoside (Sigma). Dissociated DRGs were plated immediately on laminin/poly-L-lysine-coated coverslips or transfected (see below) and then plated on coated coverslips. […] Neurite outgrowth was assessed 24 h after addition of peptides. For the cortical cultures, 10 μM peptide was applied to the axonal compartment at 3 d in vitro (DIV) and axonal growth was assessed at 6 DIV. For neurite outgrowth, images from 60 h DRG cultures were analyzed for neurite outgrowth using WIS-Neuromath. Axon morphology was visualized using GFP and/or NF immunofluorescence as described.

The next assay deals with cortical neurons. Description: Axon growth of cortical neurons in microfluidic devices, peptide applied to axonal compartment. The conditions noted are these: 10 μM peptide applied to axonal compartment at 3 DIV, assessed at 6 DIV; FIG. 11C. The method, then: For cortical neuron cultures, E18 cortices were dissected in Hibernate E (BrainBits) and dissociated using the Neural Tissue Dissociation kit (Miltenyi Biotec). […] After washing and centrifugation, neurons were seeded at a density of 1×10^5 cells per poly-D-lysine-coated microfluidic device (Xona Microfluidics). NbActive-1 medium (BrainBits) supplemented with 100 U/ml of Penicillin-Streptomycin (Life Technologies), 2 mM L-Glutamine (Life Technologies), and 1×[…] supplement (R&D Systems) was used as culture medium. For peptide treatments, 10 μM Tat-fused peptides were added to dissociated DRG cultures at 2 or 12 h after plating. Neurite outgrowth was assessed 24 h after addition of peptides. For the cortical cultures, 10 μM peptide was applied to the axonal compartment at 3 d in vitro (DIV) and axonal growth was assessed at 6 DIV.

The subject of assay [3] is protein synthesis in DRG neurons. In words: Puromycinylation assay for newly synthesized proteins in DRG neurons. The note with it: peptide treatment, compared to control and 168-189 peptide, FIG. 12D. The method, then: To visualize newly synthesized proteins in cultured neurons, the current disclosure used the Click-iT® Plus OPP Protein Synthesis Assay Kit per manufacturer's instructions (Invitrogen/Life Technologies). Briefly, 3 DIV cultures were incubated with 20 μM O-propargyl-puromycin (OPP) for 30 min at 37° C. OPP-labeled proteins were detected by crosslinking with Alexa Fluor-594 picolyl azide molecule. Coverslips were then mounted with Prolong Gold Antifade (Invitrogen) and imaged with Leica DMI6000 epifluorescent microscope as above. ImageJ was used to quantify the Puromycinylation signals in distal axons and cell bodies.

Assay [4] has as its system axonal G3BP1-mCh aggregates. In words: Live cell imaging of G3BP1-mCherry granules in DRG axons. As to the method:
DRG neurons were transfected with G3BP1-mCherry, and 36 h later distal axons were imaged using Leica SP8X confocal microscope with environmental chamber maintained at 37° C., 5% CO2 (with 63×/1.4 NA oil immersion objective). Confocal pinhole was set to 0.43 airy units. G3BP1-mCherry signals were imaged in axon shaft every 2 sec for 100 frames (at 540 nm excitation and 23% white light laser power; 565-597 nm emission). To study the effect of the G3BP1 190-208 peptide on the G3BP1-mCherry granules, 10 μM FITC-conjugated peptide was added to the media and 15 min later imaging was continued. For G3BP1-mCherry aggregates, a 100 μm of the axon shaft was considered (≥200 μm from cell body). Thresholding was applied to acquired image sequences using ImageJ to generate binary masks. ImageJ particle analyzer was used for analysis. G3BP1 aggregates with area of ≥1 μm2 were considered as SG-like structures. For analyzing the G3BP1 aggregate velocity, ImageJ […] plug-in was used.

For assay [5], the system named is axonal mRNA translation in DRG neurons. In words: FRAP of axonally targeted translation reporters in DRG neurons. The note with it: G3BP1-overexpressing DRGs, 10 μM peptide; FIG. 14C. The method, then: FRAP was used to test for axonal mRNA protein synthesis using diffusion-limited GFP^MYR and mCherry^MYR reporters as described with minor modifications. In each case, DRG neurons were co-transfected with […]+mCherry^MYR5'/3'gap43 or […]β1+mCherry^MYR5'/3'gap43 so that recovery of both reporters could be analyzed simultaneously. Cells were maintained at 37° C., 5% CO2 during imaging sequences. 488 nm and 514 nm laser lines on Leica SP8X confocal microscope were used to bleach GFP and mCherry signals, respectively (Argon laser at 70% power, pulsed every 0.82 sec for 80 frames). Pinhole was set to 3 Airy units to ensure full thickness bleaching and acquisition (63×/1.4 NA oil immersion objective). Prior to photobleaching, neurons were imaged every 60 sec for 2 min to acquire baseline fluorescence the region of interest (ROI; 15% laser power, 498-530 nm for GFP and 565-597 nm for mCherry emissions, respectively). The same excitation and emission parameters were used to assess recovery over 15 min post-bleach with images acquired at 30 sec intervals. To determine if fluorescence recovery in axons was from translation, cultures were treated with 150 μg/ml cycloheximide (Sigma) or 100 μM anisomycin (Sigma) for 30 min. prior to photobleaching for […]+mCherry^MYR5'/3'gap43 and […] transfected DRGs, respectively. For peptide treatments, G3BP1-mCh transfected DRG neurons were treated with 10 μM G3BP1 peptides after acquiring the baseline expression values. Photobleaching followed by analyses of recovery was performed after 30 min of peptide exposure. Fluorescent intensities in the ROIs were calculated by the Leica LASX software. For normalizing across experiments, fluorescence intensity value at t=0 min post-bleach from each image sequence was set as 0%. The percentage of fluorescence recovery at each time point after photobleaching was then calculated by normalizing relative to the pre-bleach fluorescence intensity (set at 100%).

Setting [6] is: 10 μM peptide added to DRG cultures immediately after plating, FIG. 16B.

Take “5′ ccacauaggagcugggaauuu 3′ [G3BP1 siRNA]”: in the assay on DRG neurons [1], the axon growth entry is given as “significantly increased axon growth”.
Turning to “Glu Glu Ser Glu Glu Glu Val Glu Glu Pro Glu Glu Arg Gln Gln Ser Pro Glu Val Val Tvr Glv Asn Lvs Lvs Asn Asn Gln Asn Asn Asn [147-166 peptide]”, the axon length result with DRG neurons [2] (setting [6]) was “increased axon length”.
As to “Tvr Glv Asn Lvs Lvs Asn Asn Asn Gln Asn Asn Asn Val Val Glu Pro Glu Pro Glu Pro Glu Pro Glu Pro Glu Pro Glu Pro Val Ser [190-208 peptide]”, in the assay with cortical neurons, the axon growth entry is on record as “significant increase in axon growth; also recorded: significantly increased axon growth”. In addition, the “axonal protein synthesis (Puro incorporation in DRG axons)” value in assay [3] (listed as 190-208 G3BP1 peptide) was “significantly increased”. Also, the “axonal protein synthesis (Puro incorporation in DRG axons)” value in assay [3] (listed as G3BP1 190-208 peptide) was “increased axonal protein synthesis”. Further, the “axonal G3BP1-mCh aggregates (density along 100 μm axon)” value in assay [4] (10 μM peptide, within 15 min, FIG. 12G) is given as “striking decrease”. Besides, in assay [4] (after 10 μM peptide treatment, 15 min, FIG. 12H), the “size of remaining SG-like structures in axons” value is listed as “significantly smaller”. The “motility of remaining aggregates” value in assay [4] (after peptide treatment vs. control conditions) is reported as “greater motility”. In assay [5], the “axonal translation of GFPMYR5′/3′impβ1 mRNA” value is “did not affect translation”, the “axonal translation of GFPMYR5′/3′nrn1 mRNA” value was “significantly rescued axonal translation” and the “axonal translation of mChMYR5′/3′gap43 mRNA” value is “did not affect translation”. Besides, in the assay on DRG neurons [2] (setting [6]), the axon length entry was “increased axon length” and the “number of neurites per neuron” value is reported as “increased number of neurites per neuron”. The axon length entry in the assay on DRG neurons [2] (7 d injury-conditioned (pre-injured) DRG neurons, peptide added at 12 h, assessed at 36 h, FIG. 11C) is on record as “significantly increased axon length; also recorded: effectively increase axon growth”. The axon length entry in the assay with DRG neurons [2] (naive DRG neurons, delayed application, peptide added at 12 h, assessed at 36 h, FIG. 11C) is given as “significantly increased axon length; also recorded: effectively increase axon growth”.

The record behind these values is patent US11382947B2, “Targeting G3BP proteins to accelerate nerve regeneration” (University of South Carolina, priority 2017, dated 2022).
